According to ChEMBL document CHEMBL6134903, “Challenging triple negative breast cancer through HDAC6 selective inhibition: Novel cap-group identification, structure-activity relationships, computational and biological studies” (Eur J Med Chem, 2025):

Assays:
[1] = Cytotoxicity against human HeLa cells assessed as reduction in cell viability incubated for 72 hrs by CellTiter Glo assay; type: toxicity, cell-based
physchem = settings: MeOH/H2O, pH 7
Description: Solubility of the compound in MeOH/H20 at pH 7 incubated for 24 hrs by LC-MS/MS analysis

solubility at 24 h (physchem)	Compound	IC50 at 72 h [1]	CC50 at 72 h [1]
–	O=C(/C=C/c1ccc(CN(CCO)CCc2c[nH]c3ccccc23)cc1)NO [DACINOSTAT]	30.8 nM	30 nM
–	Cc1[nH]c2ccccc2c1CCNCc1ccc(/C=C/C(=O)NO)cc1 [PANOBINOSTAT]	10.9 nM	11 nM
< 1000 µg/mL	CN1CCc2c(c3ccccc3n2Cc2ccc(C(=O)NO)cc2)C1 [TUBASTATIN A]	–	–
